Results as given in the NIST ThermoML archive (doi:10.1016/j.jct.2012.03.003).
± gives the expanded uncertainty stated by the source.

Assay: xn = mol fraction of the nth substance listed
Conditions: Liquid, Vibrating tube method

COc1cc2c(cc1O)CC1c3c(cc(O)c(OC)c3-2)CCN1C (stereo not given) [boldine] + CCCO
Conditions | mass density [kg/m3]
343 K, 1000 kPa, x1 = 0.0018 | 765.31 ± 0.95
343 K, 2000 kPa, x1 = 0.0018 | 766.28 ± 0.94
343 K, 3000 kPa, x1 = 0.0018 | 767.25 ± 0.94
343 K, 4000 kPa, x1 = 0.0018 | 768.23 ± 0.94
343 K, 5000 kPa, x1 = 0.0018 | 769.21 ± 0.93
343 K, 6000 kPa, x1 = 0.0018 | 770.18 ± 0.94
343 K, 7000 kPa, x1 = 0.0018 | 771.15 ± 0.94
343 K, 8000 kPa, x1 = 0.0018 | 772.11 ± 0.94
343 K, 9000 kPa, x1 = 0.0018 | 773.07 ± 0.94
343 K, 10000 kPa, x1 = 0.0018 | 774.02 ± 0.94
343 K, 11000 kPa, x1 = 0.0018 | 774.96 ± 0.94
343 K, 12000 kPa, x1 = 0.0018 | 775.89 ± 0.95
343 K, 13000 kPa, x1 = 0.0018 | 776.81 ± 0.95
343 K, 14000 kPa, x1 = 0.0018 | 777.73 ± 0.95
343 K, 15000 kPa, x1 = 0.0018 | 778.63 ± 0.95
343 K, 16000 kPa, x1 = 0.0018 | 779.51 ± 0.95
343 K, 17000 kPa, x1 = 0.0018 | 780.4 ± 0.95
343 K, 18000 kPa, x1 = 0.0018 | 781.25 ± 0.95
343 K, 19000 kPa, x1 = 0.0018 | 782.1 ± 0.96
343 K, 20000 kPa, x1 = 0.0018 | 782.93 ± 0.96
343.01 K, 1000 kPa, x1 = 0.0077 | 775.45 ± 0.66
343.01 K, 1000 kPa, x1 = 0.0142 | 786.8 ± 0.63
343.01 K, 2000 kPa, x1 = 0.0077 | 776.42 ± 0.66
343.01 K, 2000 kPa, x1 = 0.0142 | 787.75 ± 0.64
343.01 K, 3000 kPa, x1 = 0.0077 | 777.38 ± 0.66
343.01 K, 3000 kPa, x1 = 0.0142 | 788.7 ± 0.64
343.01 K, 4000 kPa, x1 = 0.0077 | 778.34 ± 0.66
343.01 K, 4000 kPa, x1 = 0.0142 | 789.64 ± 0.64
343.01 K, 5000 kPa, x1 = 0.0077 | 779.31 ± 0.67
343.01 K, 5000 kPa, x1 = 0.0142 | 790.58 ± 0.65
343.01 K, 6000 kPa, x1 = 0.0077 | 780.26 ± 0.67
343.01 K, 6000 kPa, x1 = 0.0142 | 791.54 ± 0.65
343.01 K, 7000 kPa, x1 = 0.0077 | 781.23 ± 0.67
343.01 K, 7000 kPa, x1 = 0.0142 | 792.46 ± 0.65
343.01 K, 8000 kPa, x1 = 0.0077 | 782.18 ± 0.68
343.01 K, 8000 kPa, x1 = 0.0142 | 793.4 ± 0.66
343.01 K, 9000 kPa, x1 = 0.0077 | 783.12 ± 0.68
343.01 K, 9000 kPa, x1 = 0.0142 | 794.32 ± 0.66
343.01 K, 10000 kPa, x1 = 0.0077 | 784.05 ± 0.68
343.01 K, 10000 kPa, x1 = 0.0142 | 795.24 ± 0.66
343.01 K, 11000 kPa, x1 = 0.0077 | 784.98 ± 0.69
343.01 K, 11000 kPa, x1 = 0.0142 | 796.17 ± 0.66
343.01 K, 12000 kPa, x1 = 0.0077 | 785.91 ± 0.69
343.01 K, 12000 kPa, x1 = 0.0142 | 797.07 ± 0.67
343.01 K, 13000 kPa, x1 = 0.0077 | 786.82 ± 0.69
343.01 K, 13000 kPa, x1 = 0.0142 | 797.96 ± 0.67
343.01 K, 14000 kPa, x1 = 0.0077 | 787.72 ± 0.7
343.01 K, 14000 kPa, x1 = 0.0142 | 798.86 ± 0.67
343.01 K, 15000 kPa, x1 = 0.0077 | 788.61 ± 0.7
343.01 K, 15000 kPa, x1 = 0.0142 | 799.72 ± 0.68
343.01 K, 16000 kPa, x1 = 0.0077 | 789.48 ± 0.7
343.01 K, 16000 kPa, x1 = 0.0142 | 800.59 ± 0.68
343.01 K, 17000 kPa, x1 = 0.0077 | 790.35 ± 0.71
343.01 K, 17000 kPa, x1 = 0.0142 | 801.44 ± 0.68
343.01 K, 18000 kPa, x1 = 0.0077 | 791.2 ± 0.71
343.01 K, 18000 kPa, x1 = 0.0142 | 802.3 ± 0.69
343.01 K, 19000 kPa, x1 = 0.0077 | 792.04 ± 0.71
343.01 K, 19000 kPa, x1 = 0.0142 | 803.11 ± 0.69
343.01 K, 20000 kPa, x1 = 0.0077 | 792.86 ± 0.72
343.01 K, 20000 kPa, x1 = 0.0142 | 803.92 ± 0.69
343.02 K, 1000 kPa, x1 = 0.0112 | 782.08 ± 0.72
343.02 K, 2000 kPa, x1 = 0.0112 | 783.03 ± 0.72
343.02 K, 3000 kPa, x1 = 0.0112 | 783.98 ± 0.72
343.02 K, 4000 kPa, x1 = 0.0112 | 784.93 ± 0.73
343.02 K, 5000 kPa, x1 = 0.0112 | 785.88 ± 0.73
343.02 K, 6000 kPa, x1 = 0.0112 | 786.83 ± 0.73
343.02 K, 7000 kPa, x1 = 0.0112 | 787.77 ± 0.73
343.02 K, 8000 kPa, x1 = 0.0112 | 788.71 ± 0.73
343.02 K, 9000 kPa, x1 = 0.0112 | 789.64 ± 0.73
343.02 K, 10000 kPa, x1 = 0.0112 | 790.57 ± 0.74
343.02 K, 11000 kPa, x1 = 0.0112 | 791.49 ± 0.74
343.02 K, 12000 kPa, x1 = 0.0112 | 792.4 ± 0.74
343.02 K, 13000 kPa, x1 = 0.0112 | 793.29 ± 0.74
343.02 K, 14000 kPa, x1 = 0.0112 | 794.19 ± 0.75
343.02 K, 15000 kPa, x1 = 0.0112 | 795.06 ± 0.75
343.02 K, 16000 kPa, x1 = 0.0112 | 795.93 ± 0.75
343.02 K, 17000 kPa, x1 = 0.0112 | 796.79 ± 0.76
343.02 K, 18000 kPa, x1 = 0.0112 | 797.62 ± 0.76
343.02 K, 19000 kPa, x1 = 0.0112 | 798.46 ± 0.76
343.02 K, 20000 kPa, x1 = 0.0112 | 799.28 ± 0.76
343.04 K, 1000 kPa, x1 = 0.0046 | 771.67 ± 0.7
343.04 K, 2000 kPa, x1 = 0.0046 | 772.63 ± 0.7
343.04 K, 3000 kPa, x1 = 0.0046 | 773.6 ± 0.71
343.04 K, 4000 kPa, x1 = 0.0046 | 774.56 ± 0.71
343.04 K, 5000 kPa, x1 = 0.0046 | 775.44 ± 0.71
343.04 K, 6000 kPa, x1 = 0.0046 | 776.45 ± 0.71
343.04 K, 7000 kPa, x1 = 0.0046 | 777.41 ± 0.72
343.04 K, 8000 kPa, x1 = 0.0046 | 778.35 ± 0.72
343.04 K, 9000 kPa, x1 = 0.0046 | 779.29 ± 0.72
343.04 K, 10000 kPa, x1 = 0.0046 | 780.23 ± 0.72
343.04 K, 11000 kPa, x1 = 0.0046 | 781.16 ± 0.73
343.04 K, 12000 kPa, x1 = 0.0046 | 782.09 ± 0.73
343.04 K, 13000 kPa, x1 = 0.0046 | 782.98 ± 0.73
343.04 K, 14000 kPa, x1 = 0.0046 | 783.89 ± 0.74
343.04 K, 15000 kPa, x1 = 0.0046 | 784.78 ± 0.74
343.04 K, 16000 kPa, x1 = 0.0046 | 785.65 ± 0.74
343.04 K, 17000 kPa, x1 = 0.0046 | 786.52 ± 0.75
343.04 K, 18000 kPa, x1 = 0.0046 | 787.37 ± 0.75
343.04 K, 19000 kPa, x1 = 0.0046 | 788.26 ± 0.75
343.04 K, 20000 kPa, x1 = 0.0046 | 789.03 ± 0.76
352.94 K, 1000 kPa, x1 = 0.0018 | 756.19 ± 0.93
352.94 K, 1000 kPa, x1 = 0.0112 | 772.97 ± 0.72
352.94 K, 1000 kPa, x1 = 0.0142 | 777.66 ± 0.63
352.94 K, 2000 kPa, x1 = 0.0018 | 757.24 ± 0.92
352.94 K, 2000 kPa, x1 = 0.0112 | 774.02 ± 0.72
352.94 K, 2000 kPa, x1 = 0.0142 | 778.69 ± 0.64
352.94 K, 3000 kPa, x1 = 0.0018 | 758.3 ± 0.93
352.94 K, 3000 kPa, x1 = 0.0112 | 775.24 ± 0.72
352.94 K, 3000 kPa, x1 = 0.0142 | 779.72 ± 0.62
352.94 K, 4000 kPa, x1 = 0.0018 | 759.35 ± 0.93
352.94 K, 4000 kPa, x1 = 0.0112 | 776.07 ± 0.72
352.94 K, 4000 kPa, x1 = 0.0142 | 780.73 ± 0.64
352.94 K, 5000 kPa, x1 = 0.0018 | 760.39 ± 0.93
352.94 K, 5000 kPa, x1 = 0.0112 | 777.15 ± 0.72
352.94 K, 5000 kPa, x1 = 0.0142 | 781.74 ± 0.64
352.94 K, 6000 kPa, x1 = 0.0018 | 761.42 ± 0.93
352.94 K, 6000 kPa, x1 = 0.0112 | 778.1 ± 0.73
352.94 K, 6000 kPa, x1 = 0.0142 | 782.74 ± 0.65
352.94 K, 7000 kPa, x1 = 0.0018 | 762.46 ± 0.93
352.94 K, 7000 kPa, x1 = 0.0112 | 779.1 ± 0.73
352.94 K, 7000 kPa, x1 = 0.0142 | 783.74 ± 0.65
352.94 K, 8000 kPa, x1 = 0.0018 | 763.48 ± 0.93
352.94 K, 8000 kPa, x1 = 0.0112 | 780.11 ± 0.73
352.94 K, 8000 kPa, x1 = 0.0142 | 784.73 ± 0.65
352.94 K, 9000 kPa, x1 = 0.0018 | 764.5 ± 0.93
352.94 K, 9000 kPa, x1 = 0.0112 | 781.09 ± 0.73
352.94 K, 9000 kPa, x1 = 0.0142 | 785.73 ± 0.66
352.94 K, 10000 kPa, x1 = 0.0018 | 765.51 ± 0.93
352.94 K, 10000 kPa, x1 = 0.0112 | 782.07 ± 0.74
352.94 K, 10000 kPa, x1 = 0.0142 | 786.7 ± 0.66
352.94 K, 11000 kPa, x1 = 0.0018 | 766.51 ± 0.93
352.94 K, 11000 kPa, x1 = 0.0112 | 783.04 ± 0.74
352.94 K, 11000 kPa, x1 = 0.0142 | 787.66 ± 0.66
352.94 K, 12000 kPa, x1 = 0.0018 | 767.49 ± 0.94
352.94 K, 12000 kPa, x1 = 0.0112 | 784.02 ± 0.74
352.94 K, 12000 kPa, x1 = 0.0142 | 788.61 ± 0.67
352.94 K, 13000 kPa, x1 = 0.0018 | 768.45 ± 0.94
352.94 K, 13000 kPa, x1 = 0.0112 | 784.98 ± 0.74
352.94 K, 13000 kPa, x1 = 0.0142 | 789.57 ± 0.67
352.94 K, 14000 kPa, x1 = 0.0018 | 769.42 ± 0.94
352.94 K, 14000 kPa, x1 = 0.0112 | 785.8 ± 0.75
352.94 K, 14000 kPa, x1 = 0.0142 | 790.48 ± 0.68
352.94 K, 15000 kPa, x1 = 0.0018 | 770.37 ± 0.95
352.94 K, 15000 kPa, x1 = 0.0112 | 786.85 ± 0.75
352.94 K, 15000 kPa, x1 = 0.0142 | 791.41 ± 0.67
352.94 K, 16000 kPa, x1 = 0.0018 | 771.31 ± 0.95
352.94 K, 16000 kPa, x1 = 0.0112 | 787.79 ± 0.75
352.94 K, 16000 kPa, x1 = 0.0142 | 792.32 ± 0.67
352.94 K, 17000 kPa, x1 = 0.0018 | 772.22 ± 0.95
352.94 K, 17000 kPa, x1 = 0.0112 | 788.61 ± 0.76
